For five molecules, IC50 and Km results are on record in paper PMC6891289 (Molecules, 2019).

Each structure is given as a SMILES string. Like-named read-outs stand apart in the source and are kept apart here.

The target in assay [1] is T1, acetylcholinesterase from Electrophorus electricus (electric eel) (type VI-S) (Electrophorus electricus, UniProt O42275).
T1 construct: gene ache; commercial native enzyme from Sigma, type VI-S lyophilized powder
The assay can be described thus: Ellman assay, […] nm, 4PL fit. It counts as biochemical. For orientation: In Ellman's method for cholinesterases, released thiocholine reacts with DTNB.

The target of assay [2] is T1, acetylcholinesterase from Electrophorus electricus (electric eel) (type VI-S). The assay can be described thus: Ellman assay, […] nm, Michaelis-Menten fit. It counts as biochemical. The note with it: no inhibitor, 0.1 to 1.6 mM substrate, phosphate buffer pH 8, 37 °C.
Where [3] appears, read: read-out: no inhibition up to 50 μg/mL.

T1 sequence (O42275 24-633): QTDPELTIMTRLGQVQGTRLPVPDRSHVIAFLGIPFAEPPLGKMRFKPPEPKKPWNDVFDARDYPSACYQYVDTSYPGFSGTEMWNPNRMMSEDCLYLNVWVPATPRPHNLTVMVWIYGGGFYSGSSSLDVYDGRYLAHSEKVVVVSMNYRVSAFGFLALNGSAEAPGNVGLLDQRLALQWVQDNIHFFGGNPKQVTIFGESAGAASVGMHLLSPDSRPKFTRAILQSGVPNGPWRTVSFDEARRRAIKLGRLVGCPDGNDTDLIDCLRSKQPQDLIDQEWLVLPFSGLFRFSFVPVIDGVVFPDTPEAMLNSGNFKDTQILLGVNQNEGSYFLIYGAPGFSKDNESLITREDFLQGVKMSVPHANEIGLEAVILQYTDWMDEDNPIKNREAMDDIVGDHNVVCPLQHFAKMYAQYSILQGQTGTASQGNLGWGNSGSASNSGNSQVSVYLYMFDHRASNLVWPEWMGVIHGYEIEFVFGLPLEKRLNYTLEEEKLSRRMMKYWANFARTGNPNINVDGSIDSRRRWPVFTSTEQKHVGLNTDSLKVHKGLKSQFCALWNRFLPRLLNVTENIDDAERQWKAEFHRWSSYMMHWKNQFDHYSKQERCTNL

Regarding `COc1ccc2cc3[n+](cc2c1OC)CCc1cc2c(cc1-3)OCO2` [berberine], the IC50 in assay [1] (read-out: IC50) worked out at 2.8 µM. In the case of `COc1cc(C(=O)O)ccc1O` [vanillic acid], the IC50 in assay [1] (setting [3]) is above 297 µM.

On to `COc1cc(/C=C/C(=O)O)ccc1O` [ferulic acid], for which the IC50 in assay [1] (setting [3]) was above 257 µM. With `CC(=O)SCC[N+](C)(C)C` [Acetylthiocholine chloride], the Km (in general, the concentration of substrate that gives half-maximal velocity) in assay [2] came to 330 µM.

For `O=C(O)c1cc(O)c(O)c(O)c1` [gallic acid], the IC50 in assay [1] (read-out: IC50) stood at 46.4 µM.
